From paper PMC9572860, “Antiprotozoal Activity of Azabicyclo-Nonanes Linked to Tetrazole or Sulfonamide Cores” (Molecules, 2022)

Experiments:
P. falciparum NF54 = test: In vitro microplate 3H-hypoxanthine incorporation assay against P. falciparum NF54; assay type: cell-based, Plasmodium falciparum; conditions: for S.I. = IC50 (Cyt.)/IC50 (P.f. NF54): L-6 cytotoxicity over P.f. NF54; for IC50: Plasmodium falciparum, NF54 strain sensitive to chloroquine and pyrimethamine, erythrocytic stages, average of four determinations, read-out: P. Falciparum NF54 IC50
Experimental: (§1) Compounds were tested for their activities against strains of P. falciparum and T. b. rhodesiense via microplate assays. Their cytotoxicity was determined with rat skeletal myoblasts (L-6 cells). Chloroquine and melarsoprol served as standards (Table 1).
(§2) In vitro activity against erythrocytic stages of P. falciparum was determined using a ^3H-hypoxanthine incorporation assay, using the drug-sensitive NF54 strain [21] or the chloroquine- and pyrimethamine-resistant K1 strain [22]. Compounds were dissolved in DMSO at 10 mg/mL and added to parasite cultures incubated in RPMI 1640 medium without hypoxanthine, supplemented with HEPES (5.94 g/L), NaHCO3 (2.1 g/L), neomycin (100 U/mL), Albumax (5 g/L) and washed human red cells A+ at 2.5% hematocrit (0.3% parasitemia). Serial drug dilutions of 11 three-fold dilution steps covering a range from 100 to 0.002 µg/mL were prepared. The 96-well plates were incubated in a humidified atmosphere at 37 °C; 4% CO2, 3% O2, 93% N2. After 48 h, 0.05 mL of ^3H-hypoxanthine (=0.5 µCi) was added to each well of the plate. The plates were incubated for an additional 24 h under the same conditions. The plates were then harvested with a Betaplate cell harvester (Wallac, Zurich, Switzerland). The red blood cells were transferred onto a glass fiber filter and washed with distilled water. The dried filters were inserted into a plastic foil with 10 mL of scintillation fluid and counted in a Betaplate liquid scintillation counter (Wallac, Zurich, Switzerland). IC50 values were calculated from sigmoidal inhibition curves by linear regression using Microsoft Excel. Chloroquine (Sigma C6628) was used as control.

[1] = In vitro cytotoxicity with L-6 cells; assay type: cell-based, rat; conditions: rat
Experimental: as §1
Assays were performed in 96-well microtiter plates, each well containing 0.1 mL of RPMI 1640 medium supplemented with 1% L-glutamine (200 mM) and 10% fetal bovine serum and 4000 L-6 cells (a primary cell line derived from rat skeletal myoblasts, ATCC CRL-1458™). Serial drug dilutions of 11 three-fold dilution steps covering a range from 100 to 0.002 μg/mL were prepared. After 70 h of incubation, the plates were inspected under an inverted microscope to assure the growth of the controls and sterile conditions. Then, 0.01 mL resazurin solution (resazurin, 12.5 mg in 100 ml double-distilled water) was added to each well and the plates incubated for another 2 h. The plates were read with a Spectramax Gemini XS microplate fluorometer (Molecular Devices Cooperation, Sunnyvale, CA, USA) using an excitation wavelength of 536 nm and an emission wavelength of 588 nm. The IC50 values were calculated by linear regression from the sigmoidal dose inhibition curves using SoftmaxPro software (Molecular Devices Cooperation, Sunnyvale, CA, USA). Podophyllotoxin (Sigma P4405) was used as control.

[2] = system: T. b. rhodesiense STIB 900; test: In vitro microplate resazurin assay against T. brucei rhodesiense; assay type: cell-based, Trypanosoma brucei rhodesiense; conditions: for S.I. = IC50 (Cyt.)/IC50 (T.b.r.): L-6 cytotoxicity over T.b.r.; for IC50: Trypanosoma brucei, STIB 900 bloodstream forms, average of four determinations, read-out: T. Brucei Rhodesiense IC50
Experimental: as §1
Minimum essential medium (50 µL) supplemented with 25 mM HEPES, 1 g/L additional glucose, 1% MEM nonessential amino acids (100×), 0.2 mM 2-mercaptoethanol, 1 mM Na-pyruvate and 15% heat inactivated horse serum was added to each well of a 96-well microtiter plate. Serial drug dilutions of 11 three-fold dilution steps covering a range from 100 to 0.002 μg/mL were prepared. Then, 4 × 10^3 bloodstream forms of T. b. rhodesiense STIB 900 in 50 µL was added to each well and the plate incubated at 37 °C under a 5% CO2 atmosphere for 70 h. Ten microliters of resazurin solution (resazurin, 12.5 mg in 100 mL double-distilled water) was then added to each well and incubation continued for an additional 2–4 h. The plates were then read with a Spectramax Gemini XS microplate fluorometer (Molecular Devices Cooperation, Sunnyvale, CA, USA) using an excitation wavelength of 536 nm and an emission wavelength of 588 nm. Data were analyzed with the graphic program Softmax Pro (Molecular Devices Cooperation, Sunnyvale, CA, USA), which calculated IC50 values by linear regression and 4-parameter logistic regression from the sigmoidal dose inhibition curves. Melarsoprol (Arsobal Sanofi-Aventis, received from WHO) was used as control.

P. falciparum K1 = test: In vitro microplate 3H-hypoxanthine incorporation assay against P. falciparum K1; assay type: cell-based, Plasmodium falciparum; conditions: for S.I. = IC50 (Cyt.)/IC50 (P.f. K1): L-6 cytotoxicity over P.f. K1; for IC50: Plasmodium falciparum, K1 strain resistant to chloroquine and pyrimethamine, average of four determinations, read-out: P. Falciparum K1 IC50
Experimental: as §1, §2

SMILES	S.I. = IC50 (Cyt.)/IC50 (P.f. NF54) (P. falciparum NF54)	IC50 (P. falciparum NF54)	IC50 at 72 h [1]	S.I. = IC50 (Cyt.)/IC50 (T.b.r.) [2]	IC50 [2]	S.I. = IC50 (Cyt.)/IC50 (P.f. K1) (P. falciparum K1)	IC50 (P. falciparum K1)
CC(C)(C)C(NCCN1CC2[C@H](c3ccccc3)CC(N3CCCCC3)(C[C@H]2c2ccccc2)C1)c1nnnn1C(C)(C)C (mixture of isomers) [Compound 11A, rac-(1R)-1-(1-tert-Butyl-1H-tetrazol-5-yl)-2,2-dimethyl-N-{2-[(6R,9R)-6,9-diphenyl-1-(piperidin-1-yl)-3-azabicyclo[3.2.2]nonan-3-yl]ethyl}propan-1-amine]	6.75	2.98 µM	20.1 µM	3.04	6.61 µM	–	–
CC(C)(C)C(NCCN1CC2[C@@H](c3ccccc3)CC(N3CCCCC3)(C[C@@H]2c2ccccc2)C1)c1nnnn1C(C)(C)C (mixture of isomers) [Compound 11B, rac-(1R)-1-(1-tert-Butyl-1H-tetrazol-5-yl)-2,2-dimethyl-N-{2-[(6S,9S)-6,9-diphenyl-1-(piperidin-1-yl)-3-azabicyclo[3.2.2]nonan-3-yl]ethyl}propan-1-amine]	4.99	1.32 µM	6.59 µM	1.34	4.92 µM	–	–
CC(C)(C)n1nnnc1[C@H](NCCN1CC2C(c3ccccc3)CC(N3CCCCC3)(CC2c2ccccc2)C1)c1ccccc1 (mixture of isomers) [Compound 12A, rac-N-[(1R)-(1-tert-Butyl-1H-tetrazol-5-yl])(phenyl)methyl]-2-[(6R,9R)-6,9-diphenyl-1-(piperidin-1-yl)-3-azabicyclo[3.2.2]nonan-3-yl]ethan-1-amine]	11.2	0.252 µM	2.83 µM	1.29	2.2 µM	–	–
Cc1ccc([C@@H](NCCN2CC3C(c4ccccc4)CC(N4CCCCC4)(CC3c3ccccc3)C2)c2nnnn2C(C)(C)C)cc1 (mixture of isomers) [Compound 13A, rac-N-[(1R)-(1-tert-Butyl-1H-tetrazol-5-yl)(p-tolyl)methyl]-2-[(6R,9R)-6,9-diphenyl-1-(piperidin-1-yl)-3-azabicyclo[3.2.2]nonan-3-yl]ethan-1-amine]	5.72	0.446 µM	2.55 µM	7.75	0.329 µM	–	–
CN(C)C12CCN(CCN)C([C@@H](c3ccccc3)C1)[C@@H](c1ccccc1)C2 (racemic) [Compound 6, rac-(7R,8R)-2-[5-(Dimethylamino)-7,8-diphenyl-2-azabicyclo[3.2.2]nonan-2-yl]ethan-1-amine]	–	–	21.5 µM	7.36	2.92 µM	59.7	0.36 µM
NCCN1CCC2(N3CCCCC3)C[C@H](c3ccccc3)C1[C@@H](c1ccccc1)C2 (racemic) [Compound 7, rac-(7R,8R)-2-[7,8-Diphenyl-5-(piperidin-1-yl)-2-azabicyclo[3.2.2]nonan-2-yl]ethan-1-amine]	–	–	16.8 µM	8.66	1.94 µM	93.3	0.18 µM
CC(C)(C)n1nnnc1C(NCCN1CC2C(c3ccccc3)CC(N3CCCCC3)(CC2c2ccccc2)C1)c1ccccc1 (racemic) [Compound 12B, rac-N-[(1R)-1-tert-Butyl-1H-tetrazol-5-yl])(phenyl)methyl]-2-[(6S,9S)-6,9-diphenyl-1-(piperidin-1-yl)-3-azabicyclo[3.2.2]nonan-3-yl]ethan-1-amine]	1.92	1.33 µM	2.56 µM	1.68	1.52 µM	–	–
